The test system of this data set is blood. Briefly: Blood compatibility: coagulation. As to conditions: 4.0 ml blood added, circulating at 37 degrees C. for 60 minutes in heparin-coated tubes; duplicate. Here is the method: The lipid/polymer hybrid particles have been characterized with respect to coagulation and hemolyse. Briefly, the experiments were carried out as follows:
Coagulation: Solvent/water mixture, with the same ratio used for particle formation, was used as negative control. Other samples were pure polymer, pure lipid, lipid/polymer composite particles and Taxol. Taxol was used as positive control. All experiments were carried out in dublicate.4.0 ml blood were added to each sample before the samples were circulating, at 37 degrees C. for 60 minutes, in tubes with the inside coated with heparin.

`CCCCCCCC/C=C\CCCCCCCC(=O)OCC(O)CO` (stereo not shown) [pure lipid, glyceryl-mono-oleate]: the coagulation result is given as “no coagulation”.

The record behind these values is US20060188573A1, “Composite materials and particles” (priority 2003, published 2006).
